Reference: patent publication US20200306210A1 (ZOGENIX INTERNATIONAL LIMITED, priority 2017, published 2020)
Where “and” joins values, the source holds several entries; their conditions need not be identical. Equal entries are not always repeated. Structures can show the parent of a compound that is named as a salt.

What was measured:
[1] = test system: children and young adults with Dravet syndrome; assay: Study 1: Behavior Rating Inventory of Executive Function (BRIEF); format: in vivo, Human; settings: for BRIEF Global Executive Composite, change from baseline, mean: raw scores, negative = improvement
Text: In the BRIEF test, the parent/caregiver and/or the patient (e.g., child or adolescent self-reporting) responds to a series of statements or questions in the form of questionnaires, where an answer of “N”=Never a problem, “S”=Sometimes a problem, and “O”=Often a problem are used to indicate that the behavior being described or assessed has occurred in the past 6 months.
Each questionnaire of the BRIEF parent- and teacher-rating form contains 86 items in eight non-overlapping clinical scales and two validity scales. Based on theoretical and empirical analyses (reviewed in chapter 5 of Gioia, Ibid.), the clinical scales combine to form two indexes: a) Behavioral Regulation (three scales) and b) Metacognition (five scales), as well as a Global Executive Composite (GEC), which is a summary score that takes into account all eight clinical scales of the BRIEF and represents the child's overall executive function. There are also two validity scales to measure Negativity and Inconsistency of responses. Scores on the Negativity scale measures the extent to which the respondent answered selected items in an unusually negative manner whereas scores on the Inconsistency scale indicate the extent to which the respondent answered similar items in an inconsistent manner.
The BRIEF (BRIEF-A or BRIEF-P) were administered at the time of patient randomization (on visit 3, which was one day before (study day “−1”) treatment began (study day 1)); the BRIEF was administered again during visit 8 (study day 43), and at the end of the study (visit 12, study day 99) to assess cognitive function.
(§1) The incidence of treatment-emergent adverse events (TEAEs) was monitored continuously during the study. TEAEs were graded by the investigator as mild, moderate, or severe, and related or not related to study medication. Vital signs, height, weight, and clinical laboratory evaluations were performed at each study visit. The Behavior Rating Inventory of Executive Function (BRIEF) was administered at baseline and periodically during the treatment period to assess for any effects of treatment on cognitive function. Doppler echocardiography (ECHOs) and 12-lead electrocardiography (ECGs) were performed during the screening/baseline period, after 6 weeks of treatment, and after 14 weeks of treatment at the end of the maintenance period. The ECGs and ECHOs were evaluated by two independent cardiologists who were blind to treatment randomization. In the event of disagreement, a third cardiologist arbitrated the decision.

[2] = test system: children and young adults with Dravet syndrome; assay: Study 1: safety (TEAEs, body weight, echocardiography); format: in vivo, Human
Experimental: as §1
All subjects received ZX008 or matching placebo for up to approximately 16 weeks (Titration Period=2 weeks; Maintenance Period=12 weeks; Taper/Transition Period=2 weeks) in Study 1. After completion of the Maintenance Period, eligible subjects could enroll in an open-label extension (OLE) study, after completion of the transition. […] Follow-up cardiovascular safety assessments, including ECG and ECHO, were performed 3 to 6 months following the last dose of study medication.
In the ZX008 0.2 mg/kg/day group, 5 (12.8%) subjects had weight losses ranging from 8.4% to 21.9% of body weight; the one subject with a 21.9% loss was under the guidance of a nutritionist to manage their weight during the trial, and another subject with a 15.3% loss had been diagnosed with diabetes mellitus shortly before enrolling in the study and was also being managed to lose weight. One subject in the 0.2 mg/kg/day group gained 10.3% body weight during the study. In the ZX008 0.8 mg/kg/day group, 8 (20.0%) subjects lost weight, ranging from 7.2% to 11.4% of baseline body weight. One subject in the ZX008 0.8 mg/kg/day group discontinued citing decreased appetite and weight loss, among other events. The weight loss, however, amounted to less than 1 kg. There were no deaths in the study.

## CCNC(C)Cc1cccc(C(F)(F)F)c1 (centres unmarked) [ZX008, fenfluramine hydrochloride]
[1]; 0.2 mg/kg/day, P<0.05
  BRIEF BRI, improvement compared to baseline as compared to placebo: significant improvement
[1]; 0.2 mg/kg/day
  BRIEF Global Executive Composite, change from baseline, mean: −4.4 ± 22.3
[1]; 0.8 mg/kg/day, P<0.05
  BRIEF BRI, improvement compared to baseline as compared to placebo: statistically significant improvement
  BRIEF GEC, improvement compared to baseline as compared to placebo: statistically significant improvement
[1]; 0.8 mg/kg/day
  BRIEF Global Executive Composite, change from baseline, mean: −11.0 ± 29.1
[1]; 0.2 and 0.8 mg/kg/day, hydrochloride
  BRIEF-P, difference from placebo: No changes
[2]
  Deaths in the study: no deaths
  Tolerability: generally well tolerated
[2]; 0.2 mg/kg/day
  At least one echocardiographic finding with trace mitral and/or trace aortic regurgitation, % of subjects: 17.9%
  At least one echocardiographic finding with trace mitral and/or trace aortic regurgitation, number of subjects: 7
  Body weight gained during the study, one subject: 10.3%
  Serious adverse events, % of subjects: 10.3%
  Serious adverse events, number of subjects: 4
  Status epilepticus (serious adverse event), % of subjects: 2.6%
  Status epilepticus (serious adverse event), number of subjects: 1
  Subjects with weight loss (change from baseline ≥7%), number: 5
  TEAEs mild to moderate in severity, % of patients among those with TEAEs: 94.6%
  TEAEs mild to moderate in severity, number of patients among those with TEAEs: 35
[2]; 0.2 mg/kg/day, hydrochloride
  Subjects with weight loss (change from baseline ≥7%), %: 12.8% and 13%
[2]; 0.8 mg/kg/day
  At least one echocardiographic finding with trace mitral and/or trace aortic regurgitation, % of subjects: 22.5%
  At least one echocardiographic finding with trace mitral and/or trace aortic regurgitation, number of subjects: 9
  Serious adverse events, % of subjects: 12.5%
  Serious adverse events, number of subjects: 5
  Status epilepticus (serious adverse event), % of subjects: 5%
  Status epilepticus (serious adverse event), number of subjects: 2
  Subjects with weight loss (change from baseline ≥7%), number: 8
  TEAEs mild to moderate in severity, % of patients among those with TEAEs: 92.1%
  TEAEs mild to moderate in severity, number of patients among those with TEAEs: 35
[2]; 0.8 mg/kg/day, hydrochloride
  Subjects with weight loss (change from baseline ≥7%), %: 20%
[2]; ZX008-treated patients
  Most common non-cardiovascular adverse events: decreased appetite, diarrhea, nasopharyngitis, lethargy, somnolence, and pyrexia
[2]; each ZX008 dose group (0.2 and 0.8 mg/kg/day)
  TEAEs reported, % of subjects: 95%
[2]; ≤30 mg/day, 14-week treatment and 2-week transition, hydrochloride
  Cases of cardiac valvulopathy or pulmonary hypertension: no cases
